One compound from paper PMC10071493 (ACS chemical neuroscience, 2021) can be followed below.

The target of the assay is MC-I from the bovine heart (mitochondrial complex I) (Bos taurus, UniProt P25708). Nature of the assay: microscale thermophoresis, label-free. Type of assay: binding. In general terms: MST reads how a fluorescent partner responds to local heating, with and without ligand.

pKd: −log10 of the molar value.

Chain of MC-I from the bovine heart (mitochondrial complex I) (P25708 21-464, one chain of several): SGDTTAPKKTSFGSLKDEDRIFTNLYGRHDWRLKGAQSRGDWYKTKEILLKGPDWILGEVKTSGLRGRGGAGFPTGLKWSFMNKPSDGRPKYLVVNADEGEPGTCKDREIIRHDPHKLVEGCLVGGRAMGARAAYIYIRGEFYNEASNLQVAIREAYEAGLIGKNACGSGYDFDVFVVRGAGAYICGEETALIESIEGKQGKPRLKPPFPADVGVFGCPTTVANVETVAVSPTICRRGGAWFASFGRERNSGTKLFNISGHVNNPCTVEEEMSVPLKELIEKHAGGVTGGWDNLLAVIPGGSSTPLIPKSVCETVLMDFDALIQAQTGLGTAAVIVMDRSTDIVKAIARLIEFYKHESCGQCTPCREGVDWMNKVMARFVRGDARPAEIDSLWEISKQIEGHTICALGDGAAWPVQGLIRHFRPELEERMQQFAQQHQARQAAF

For `COc1ccc2[nH]cc(CCNC(=O)CC(=O)CCc3ccc(F)cc3)c2c1` [compound 2, 5-(4-Fluorophenyl)-N-(2-(5-methoxy-1H-indol-3-yl)ethyl)-3-oxo-pentanamide], the pKd (commonly −log10 of the Kd, conventionally taken in molar units) is around 6.30.
